Results as given in PubChem BioAssay AID256 (DTP/NCI, 2004).
Several values for one entry are separate records, joined by “and”; a condition that tells them apart may be missing. Identical values can stand only once. Toxic doses and inconclusive results are not listed.

System: CD2F1 mice, L1210 leukemia ip, survival T/C
Assay: NCI In Vivo Anticancer Drug Screen. Data for tumor model L1210 Leukemia (intraperitoneal) in CD2F1 (CDF1) mice
Settings: endpoint: mean survival time, higher = longer survival
Summary of the method: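 Read-out first: treated-group measurement over vehicle-control measurement, expressed as a ratio. Animals bore a transplanted tumor line and were dosed with compound or vehicle.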

[1] = dose: 6.25 mg/kg/injection, schedule: Q01DX009 (ip), vehicle: saline
[2] = dose: 12.5 mg/kg/injection, schedule: Q01DX009 (ip), vehicle: saline
[3] = dose: 25.0 mg/kg/injection, schedule: Q01DX009 (ip), vehicle: saline
[4] = dose: 50.0 mg/kg/injection, schedule: Q01DX009 (ip), vehicle: saline
[5] = dose: 100.0 mg/kg/injection, schedule: Q01DX009 (ip), vehicle: saline

In the case of COc1cc(C[C@H]2c3cc(OC)c(OC)cc3CCN2C)c(Oc2cc3c(cc2OC)-c2c(OC)c(OC)cc4c2[C@H](C3)N(C)CC4)cc1OC, the T/C (dose: 2.5 mg/kg/injection, schedule: Q03HX016 (ip), vehicle: saline) is reported as 92 % of control, the T/C (dose: 2.5 mg/kg/injection, schedule: Q03HX024 (ip), vehicle: saline) is reported as 94 % of control and the T/C (dose: 5.0 mg/kg/injection, schedule: Q03HX008 (ip), vehicle: saline) is reported as 95 % of control. The T/C (dose: 5.0 mg/kg/injection, schedule: Q03HX016 (ip), vehicle: saline) was 93 % of control, the T/C (dose: 5.0 mg/kg/injection, schedule: Q03HX024 (ip), vehicle: saline) was 91 % of control and the T/C [1] was 95 % of control. For the same compound, the T/C (dose: 10.0 mg/kg/injection, schedule: Q03HX008 (ip), vehicle: saline) was 93 % of control, the T/C (dose: 10.0 mg/kg/injection, schedule: Q03HX016 (ip), vehicle: saline) was 91 % of control and the T/C (dose: 10.0 mg/kg/injection, schedule: Q03HX024 (ip), vehicle: saline) was 92 % of control. For the same compound, the T/C [2] was 94 % of control, the T/C (dose: 12.5 mg/kg/injection, schedule: Q01DX009 (oral), vehicle: saline) was 98 % of control and the T/C (dose: 20.0 mg/kg/injection, schedule: Q03HX008 (ip), vehicle: saline) was 95 % of control. The T/C (dose: 20.0 mg/kg/injection, schedule: Q03HX016 (ip), vehicle: saline) was 95 % of control, the T/C (dose: 20.0 mg/kg/injection, schedule: Q03HX024 (ip), vehicle: saline) was 96 % of control and the T/C [3] was 94 % of control. For the same compound, the T/C (dose: 25.0 mg/kg/injection, schedule: Q01DX009 (oral), vehicle: saline) was 101 % of control, the T/C (dose: 25.0 mg/kg/injection, schedule: Q04DX003 (ip), vehicle: saline) was 98 % of control and the T/C (dose: 25.0 mg/kg/injection, schedule: Q08DX002 (ip), vehicle: saline) was 92 % of control. For the same compound, the T/C (dose: 40.0 mg/kg/injection, schedule: Q03HX008 (ip), vehicle: saline) was 97 % of control, the T/C (dose: 40.0 mg/kg/injection, schedule: Q03HX016 (ip), vehicle: saline) was 93 % of control and the T/C (dose: 40.0 mg/kg/injection, schedule: Q03HX024 (ip), vehicle: saline) was 89 % of control. For the same compound, the T/C (dose: 50.0 mg/kg/injection, schedule: Q01DX001 (ip), vehicle: saline) was 87 % of control, the T/C [4] was 94 % of control and the T/C (dose: 50.0 mg/kg/injection, schedule: Q01DX009 (oral), vehicle: saline) was 96 % of control. For the same compound, the T/C (dose: 50.0 mg/kg/injection, schedule: Q04DX003 (ip), vehicle: saline) was 98 % of control, the T/C (dose: 50.0 mg/kg/injection, schedule: Q08DX002 (ip), vehicle: saline) was 94 % of control and the T/C (dose: 80.0 mg/kg/injection, schedule: Q03HX008 (ip), vehicle: saline) was 98 % of control. The T/C (dose: 100.0 mg/kg/injection, schedule: Q01DX001 (ip), vehicle: saline) was 87 % of control, the T/C (dose: 100.0 mg/kg/injection, schedule: Q01DX001 (oral), vehicle: saline) was 101 % of control and the T/C [5] was 94 % of control. For the same compound, the T/C (dose: 100.0 mg/kg/injection, schedule: Q01DX009 (oral), vehicle: saline) was 106 % of control, the T/C (dose: 100.0 mg/kg/injection, schedule: Q04DX003 (ip), vehicle: saline) was 95 % of control and the T/C (dose: 100.0 mg/kg/injection, schedule: Q08DX002 (ip), vehicle: saline) was 92 % of control. The T/C (dose: 200.0 mg/kg/injection, schedule: Q01DX001 (oral), vehicle: saline) was 101 % of control, the T/C (dose: 200.0 mg/kg/injection, schedule: Q01DX009 (oral), vehicle: saline) was 109 % of control and the T/C (dose: 200.0 mg/kg/injection, schedule: Q04DX003 (ip), vehicle: saline) was 105 % of control. The T/C (dose: 200.0 mg/kg/injection, schedule: Q08DX002 (ip), vehicle: saline) was 94 % of control, the T/C (dose: 400.0 mg/kg/injection, schedule: Q01DX001 (ip), vehicle: saline) was 89 % of control and the T/C (dose: 400.0 mg/kg/injection, schedule: Q01DX001 (oral), vehicle: saline) was 103 % of control. For the same compound, the T/C (dose: 400.0 mg/kg/injection, schedule: Q08DX002 (ip), vehicle: saline) was 90 % of control, the T/C (dose: 800.0 mg/kg/injection, schedule: Q01DX001 (ip), vehicle: saline) was 90 % of control and the T/C (dose: 800.0 mg/kg/injection, schedule: Q01DX001 (oral), vehicle: saline) was 104 % of control. The T/C (dose: 1600.0 mg/kg/injection, schedule: Q01DX001 (oral), vehicle: saline) was 102 % of control.

In the case of NNC(=O)c1cc(Cl)cc(C(=O)NN)n1, the T/C (dose: 50.0 mg/kg/injection, schedule: Q01DX009 (ip), vehicle: saline with Tween-80) is reported as 97 % of control.

For NC1=NCN(C2OC(COC(=O)c3ccccc3)C(OC(=O)c3ccccc3)C2OC(=O)c2ccccc2)C(=O)N1 (stereo not given), the T/C (dose: 3.12 mg/kg/injection, schedule: Q01DX009 (ip), vehicle: saline) was 97 % of control and 108 % of control, the T/C [1] was 91 % of control and 102 % of control and the T/C [2] was 91 % of control and 100 % of control. For the same compound, the T/C [3] was 94 % of control and 97 % of control, the T/C [4] was 112 % of control and 100 % of control and the T/C [5] was 122 % of control and 108 % of control. For the same compound, the T/C (dose: 200.0 mg/kg/injection, schedule: Q01DX009 (ip), vehicle: saline) was 165 % of control.

O=C(Nc1ccc2c3c(cccc13)CC2)c1ccccc1 was tested, and the T/C (dose: 100.0 mg/kg/injection, schedule: Q04DX003 (ip), vehicle: saline with Tween-80) was 95 % of control, the T/C (dose: 200.0 mg/kg/injection, schedule: Q04DX003 (ip), vehicle: saline with Tween-80) was 97 % of control and the T/C (dose: 400.0 mg/kg/injection, schedule: Q04DX003 (ip), vehicle: saline with Tween-80) was 92 % of control.

ClCc1cnc[nH]1 was tested, and the T/C (dose: 100.0 mg/kg/injection, schedule: Q04DX002 (ip), vehicle: saline) was 103 % of control and the T/C (dose: 200.0 mg/kg/injection, schedule: Q04DX002 (ip), vehicle: saline) was 96 % of control.

In the case of CCCSCCCC(=O)O, the T/C (dose: 100.0 mg/kg/injection, schedule: Q04DX003 (ip), vehicle: Klucel (hydroxypropylcellulose) (HPC)) is reported as 95 % of control, the T/C (dose: 200.0 mg/kg/injection, schedule: Q04DX003 (ip), vehicle: Klucel (hydroxypropylcellulose) (HPC)) is reported as 98 % of control and the T/C (dose: 400.0 mg/kg/injection, schedule: Q04DX003 (ip), vehicle: Klucel (hydroxypropylcellulose) (HPC)) is reported as 103 % of control.

With CCCc1nc(/N=N/N(C)C)c(C(N)=O)[nH]1 the T/C (dose: 75.0 mg/kg/injection, schedule: Q01DX001 (ip), vehicle: saline) was 114 % of control, the T/C (dose: 150.0 mg/kg/injection, schedule: Q01DX001 (ip), vehicle: saline) was 120 % of control and the T/C (dose: 300.0 mg/kg/injection, schedule: Q01DX001 (ip), vehicle: saline) was 122 % of control.

For NC(=O)C(C(N)=O)c1ccnc2ccccc12, the T/C (dose: 6.25 mg/kg/injection, schedule: Q01DX001 (ip), vehicle: saline with Tween-80) was 102 % of control, the T/C (dose: 6.25 mg/kg/injection, schedule: Q01DX009 (ip), vehicle: saline with Tween-80) was 97 % of control and the T/C (dose: 12.5 mg/kg/injection, schedule: Q01DX001 (ip), vehicle: saline with Tween-80) was 103 % of control. The T/C (dose: 12.5 mg/kg/injection, schedule: Q01DX009 (ip), vehicle: saline with Tween-80) was 93 % of control, the T/C (dose: 25.0 mg/kg/injection, schedule: Q01DX001 (ip), vehicle: saline with Tween-80) was 96 % of control and the T/C (dose: 25.0 mg/kg/injection, schedule: Q01DX009 (ip), vehicle: saline with Tween-80) was 93 % of control.

In the case of c1ccc(OCC2(N3CCCCC3)CCCC2)cc1, the T/C (dose: 25.0 mg/kg/injection, schedule: Q04DX002 (ip), vehicle: saline with Tween-80) is reported as 103 % of control and the T/C (dose: 50.0 mg/kg/injection, schedule: Q04DX002 (ip), vehicle: saline with Tween-80) is reported as 108 % of control.
